# Source: ChEMBL document CHEMBL4732086, “Targeting nuclear protein TDP-43 by cell division cycle kinase 7 inhibitors: A new therapeutic approach for amyotrophic lateral sclerosis” (Eur J Med Chem, 2021)
# Calls of active or inactive are those of the source. The calls are words filed in the database; no cut-off is given here.
# Legend:
# [1] = target: CDC7/DBF4 (Cell division cycle 7-related protein kinase/Activator of S phase kinase) (Homo sapiens, UniProt O00311); experiment: Inhibition of recombinant human CDC7/Dbf4 expressed in baculovirus infected Sf9 insect cells assessed as inhibition of fluorescein labelled substrate phosphorylation in presence of ATP measured after 60 mins by TR-FRET assay
# [2] = target: RAC-alpha serine/threonine-protein kinase (Homo sapiens) (UniProt P31749); experiment: Inhibition of recombinant full length human His-tagged AKT1 using serine/threonine-06 peptide as substrate at 10 uM incubated for 60 mins in presence of ATP by Z'-LYTE assay
# [3] = target: Calcium/calmodulin-dependent protein kinase type 1D (Homo sapiens) (UniProt Q8IU85); experiment: Inhibition of recombinant full length human His-tagged CAMK1delta expressed in baculovirus expression system using serine/threonine-25 peptide as substrate at 10 uM incubated for 60 mins in presence of ATP by Z'-LYTE assay
# [4] = target: Cyclin-dependent kinase 5/CDK5 activator 1 (Homo sapiens) (UniProt Q00535+Q15078); experiment: Inhibition of recombinant full length human GST/His-tagged CDK5/p25 expressed in baculovirus expression system using serine/threonine-12 peptide as substrate at 10 uM incubated for 60 mins in presence of ATP by Z'-LYTE assay
# [5] = target: Casein kinase I isoform alpha (Homo sapiens) (UniProt P48729); experiment: Inhibition of human CSNK1A1 expressed in baculovirus expression system using serine/threonine-11 peptide as substrate at 10 uM incubated for 60 mins in presence of ATP by Z'-LYTE assay
# [6] = target: Casein kinase II subunit alpha (Homo sapiens) (UniProt P68400); experiment: Inhibition of recombinant human full length His-tagged CSNK2A1 expressed in baculovirus expression system using serine/threonine-11 peptide as substrate at 10 uM incubated for 60 mins in presence of ATP by Z'-LYTE assay
# [7] = target: T1, Dual specificity tyrosine-phosphorylation-regulated kinase 3 (Homo sapiens) (UniProt O43781); experiment: Inhibition of recombinant human full length GST-tagged DYRK3 expressed in baculovirus expression system using serine/threonine-18 peptide as substrate at 10 uM incubated for 60 mins in presence of ATP by Z'-LYTE assay
# T1 sequence (whole entry): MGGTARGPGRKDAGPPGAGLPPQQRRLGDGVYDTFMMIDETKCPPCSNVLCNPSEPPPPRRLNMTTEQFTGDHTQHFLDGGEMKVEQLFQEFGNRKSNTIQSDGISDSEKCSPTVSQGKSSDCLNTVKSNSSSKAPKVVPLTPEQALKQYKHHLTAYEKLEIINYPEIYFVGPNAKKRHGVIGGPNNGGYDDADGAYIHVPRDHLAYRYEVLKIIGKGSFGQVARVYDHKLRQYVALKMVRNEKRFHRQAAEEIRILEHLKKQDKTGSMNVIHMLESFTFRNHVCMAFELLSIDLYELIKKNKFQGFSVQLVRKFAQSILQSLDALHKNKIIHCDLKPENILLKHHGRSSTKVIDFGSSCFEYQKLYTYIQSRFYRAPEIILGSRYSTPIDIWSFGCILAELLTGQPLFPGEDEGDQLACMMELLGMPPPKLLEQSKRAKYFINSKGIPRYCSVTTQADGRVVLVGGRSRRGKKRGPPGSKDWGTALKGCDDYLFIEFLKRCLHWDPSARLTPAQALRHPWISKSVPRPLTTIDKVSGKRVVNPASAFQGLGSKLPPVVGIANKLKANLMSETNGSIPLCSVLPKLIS
# [8] = target: Receptor-type tyrosine-protein kinase FLT3 (Homo sapiens) (UniProt P36888); experiment: Inhibition of recombinant human His-tagged Flt3 expressed in baculovirus expression system using Tyr 02 peptide as substrate at 10 uM incubated for 60 mins in presence of ATP by Z'-LYTE assay
# [9] = target: Tyrosine-protein kinase Fyn (Homo sapiens) (UniProt P06241); experiment: Inhibition of recombinant human His-tagged Fyn expressed in baculovirus expression system using Tyr 02 peptide as substrate at 10 uM incubated for 60 mins in presence of ATP by Z'-LYTE assay
# [10] = target: T2, Mitogen-activated protein kinase 12 (Homo sapiens) (UniProt P53778); experiment: Inhibition of recombinant human full length His-tagged MAPK12 expressed in baculovirus expression system using serine/threonine-03 peptide as substrate at 10 uM incubated for 60 mins in presence of ATP by Z'-LYTE assay
# T2 sequence (whole entry): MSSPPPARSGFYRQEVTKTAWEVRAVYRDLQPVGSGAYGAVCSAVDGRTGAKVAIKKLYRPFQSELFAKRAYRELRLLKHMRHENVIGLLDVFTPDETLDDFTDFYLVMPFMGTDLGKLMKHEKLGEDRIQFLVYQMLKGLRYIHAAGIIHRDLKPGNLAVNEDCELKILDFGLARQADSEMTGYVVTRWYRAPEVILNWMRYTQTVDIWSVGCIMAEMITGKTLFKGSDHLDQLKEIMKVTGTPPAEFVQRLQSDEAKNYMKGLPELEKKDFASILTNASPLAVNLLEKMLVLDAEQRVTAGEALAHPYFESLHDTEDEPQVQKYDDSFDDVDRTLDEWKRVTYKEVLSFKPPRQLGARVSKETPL
# [11] = target: Serine/threonine-protein kinase MARK2 (Homo sapiens) (UniProt Q7KZI7); experiment: Inhibition of recombinant human full length GST-tagged MARK2 expressed in baculovirus expression system using serine/threonine-21 peptide as substrate at 10 uM by Z'-LYTE assay; details: time 60.0 min
# [12] = target: Serine/threonine-protein kinase PAK 1 (Homo sapiens) (UniProt Q13153); experiment: Inhibition of recombinant human full length GST-tagged PAK1 expressed in baculovirus expression system using serine/threonine-19 peptide as substrate at 10 uM by Z'-LYTE assay; details: time 60.0 min
# [13] = target: Serine/threonine-protein kinase pim-1 (Homo sapiens) (UniProt P11309); experiment: Inhibition of recombinant human HIS-tagged PIM1 expressed in baculovirus expression system using serine/threonine-07 peptide as substrate at 10 uM by Z'-LYTE assay; details: time 60.0 min
# [14] = target: Serine/threonine-protein kinase pim-2 (Homo sapiens) (UniProt Q9P1W9); experiment: Inhibition of recombinant human GST-tagged PIM2 expressed in baculovirus expression system using serine/threonine-07 peptide as substrate at 10 uM by Z'-LYTE assay; details: time 60.0 min
# [15] = target: cAMP-dependent protein kinase catalytic subunit alpha (Homo sapiens) (UniProt P17612); experiment: Inhibition of recombinant human His-tagged PRKACA expressed in Escherichia coli expression system using serine/threonine-01 peptide as substrate at 10 uM by Z'-LYTE assay; details: time 60.0 min
# SH-SY5Y = experiment: Neuroprotective activity in human SH-SY5Y cells assessed by effect on TDP-43 levels preincubated for 1 hr followed by incubation with ethacrynic acid for 24 hrs measured at 10 uM by Western blot assay; type: functional, cell-based
# Chain of RAC-alpha serine/threonine-protein kinase (Homo sapiens) (P31749 whole entry): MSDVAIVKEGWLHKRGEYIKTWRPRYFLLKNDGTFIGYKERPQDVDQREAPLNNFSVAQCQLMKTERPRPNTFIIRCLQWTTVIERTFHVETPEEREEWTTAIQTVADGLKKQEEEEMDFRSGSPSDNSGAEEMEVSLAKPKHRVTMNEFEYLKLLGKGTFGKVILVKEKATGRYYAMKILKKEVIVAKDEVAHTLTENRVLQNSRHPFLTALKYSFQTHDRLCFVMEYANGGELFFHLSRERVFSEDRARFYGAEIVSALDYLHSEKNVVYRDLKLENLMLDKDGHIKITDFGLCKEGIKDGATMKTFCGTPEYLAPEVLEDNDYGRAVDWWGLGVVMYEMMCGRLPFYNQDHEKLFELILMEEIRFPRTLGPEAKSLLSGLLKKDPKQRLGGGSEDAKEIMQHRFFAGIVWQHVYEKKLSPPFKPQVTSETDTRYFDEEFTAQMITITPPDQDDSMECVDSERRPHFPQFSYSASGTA
# Chain of CDC7/DBF4 (Cell division cycle 7-related protein kinase/Activator of S phase kinase) (Q9UBU7 whole entry): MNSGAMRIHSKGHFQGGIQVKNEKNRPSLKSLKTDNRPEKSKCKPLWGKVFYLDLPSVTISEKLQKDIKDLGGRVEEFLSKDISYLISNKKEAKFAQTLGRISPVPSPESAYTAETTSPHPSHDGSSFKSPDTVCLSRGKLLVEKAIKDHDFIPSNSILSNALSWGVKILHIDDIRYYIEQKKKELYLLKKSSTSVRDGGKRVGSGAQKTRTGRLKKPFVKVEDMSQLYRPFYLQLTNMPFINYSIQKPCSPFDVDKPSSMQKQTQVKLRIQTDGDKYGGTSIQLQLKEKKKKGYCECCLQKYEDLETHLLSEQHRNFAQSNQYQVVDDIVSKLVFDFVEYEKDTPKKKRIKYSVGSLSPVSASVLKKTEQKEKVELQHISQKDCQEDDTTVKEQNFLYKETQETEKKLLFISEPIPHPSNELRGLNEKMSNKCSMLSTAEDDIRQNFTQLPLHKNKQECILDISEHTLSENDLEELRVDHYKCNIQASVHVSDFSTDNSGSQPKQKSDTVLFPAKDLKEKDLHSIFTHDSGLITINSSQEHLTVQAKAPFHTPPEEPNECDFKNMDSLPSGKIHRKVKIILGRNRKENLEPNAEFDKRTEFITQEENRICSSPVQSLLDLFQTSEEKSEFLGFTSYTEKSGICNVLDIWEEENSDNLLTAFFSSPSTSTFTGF
# Chain of CDC7/DBF4 (Cell division cycle 7-related protein kinase/Activator of S phase kinase) (O00311 whole entry): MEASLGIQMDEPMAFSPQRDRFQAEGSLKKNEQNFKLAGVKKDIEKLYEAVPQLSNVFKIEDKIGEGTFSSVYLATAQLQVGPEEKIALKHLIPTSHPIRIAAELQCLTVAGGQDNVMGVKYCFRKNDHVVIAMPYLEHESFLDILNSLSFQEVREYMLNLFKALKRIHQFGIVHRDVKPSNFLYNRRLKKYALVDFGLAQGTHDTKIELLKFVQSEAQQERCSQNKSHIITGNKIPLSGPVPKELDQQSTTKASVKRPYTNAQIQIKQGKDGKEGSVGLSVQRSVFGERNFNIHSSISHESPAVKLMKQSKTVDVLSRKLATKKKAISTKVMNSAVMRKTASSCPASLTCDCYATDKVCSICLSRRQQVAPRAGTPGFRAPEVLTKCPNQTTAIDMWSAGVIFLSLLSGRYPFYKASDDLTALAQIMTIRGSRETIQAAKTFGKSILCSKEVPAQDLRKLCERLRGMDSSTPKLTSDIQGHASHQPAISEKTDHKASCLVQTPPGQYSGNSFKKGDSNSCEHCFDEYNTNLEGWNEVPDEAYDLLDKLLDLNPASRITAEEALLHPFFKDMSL
# Chain of Cyclin-dependent kinase 5/CDK5 activator 1 (Homo sapiens) (Q00535 whole entry, canonical isoform): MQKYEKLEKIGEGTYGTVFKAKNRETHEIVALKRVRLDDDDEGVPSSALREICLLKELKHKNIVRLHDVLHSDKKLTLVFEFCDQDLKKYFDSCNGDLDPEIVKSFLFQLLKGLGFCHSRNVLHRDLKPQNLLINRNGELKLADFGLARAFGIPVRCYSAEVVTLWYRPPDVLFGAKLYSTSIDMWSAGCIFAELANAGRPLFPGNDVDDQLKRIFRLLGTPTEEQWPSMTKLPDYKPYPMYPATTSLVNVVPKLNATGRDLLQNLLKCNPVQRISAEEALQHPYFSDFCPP
# Chain of Cyclin-dependent kinase 5/CDK5 activator 1 (Homo sapiens) (Q15078 99-307 partner limits assumed): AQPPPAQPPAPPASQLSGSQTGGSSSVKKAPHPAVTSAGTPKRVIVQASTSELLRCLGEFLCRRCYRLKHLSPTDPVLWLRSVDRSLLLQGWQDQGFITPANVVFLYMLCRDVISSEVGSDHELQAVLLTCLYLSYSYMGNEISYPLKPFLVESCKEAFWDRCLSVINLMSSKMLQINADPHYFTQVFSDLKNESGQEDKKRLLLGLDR
# Chain of Casein kinase I isoform alpha (Homo sapiens) (P48729 2-337 limits assumed): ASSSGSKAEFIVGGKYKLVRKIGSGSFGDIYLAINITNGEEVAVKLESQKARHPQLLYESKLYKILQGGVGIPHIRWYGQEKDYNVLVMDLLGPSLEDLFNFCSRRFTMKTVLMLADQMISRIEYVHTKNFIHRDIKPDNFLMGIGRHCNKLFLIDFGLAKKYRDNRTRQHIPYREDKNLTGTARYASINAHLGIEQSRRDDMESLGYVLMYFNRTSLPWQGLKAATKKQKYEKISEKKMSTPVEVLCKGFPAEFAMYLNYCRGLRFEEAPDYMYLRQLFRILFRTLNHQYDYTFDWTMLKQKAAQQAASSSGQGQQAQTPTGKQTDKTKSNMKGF
# Chain of Serine/threonine-protein kinase pim-1 (Homo sapiens) (P11309 whole entry, looked up): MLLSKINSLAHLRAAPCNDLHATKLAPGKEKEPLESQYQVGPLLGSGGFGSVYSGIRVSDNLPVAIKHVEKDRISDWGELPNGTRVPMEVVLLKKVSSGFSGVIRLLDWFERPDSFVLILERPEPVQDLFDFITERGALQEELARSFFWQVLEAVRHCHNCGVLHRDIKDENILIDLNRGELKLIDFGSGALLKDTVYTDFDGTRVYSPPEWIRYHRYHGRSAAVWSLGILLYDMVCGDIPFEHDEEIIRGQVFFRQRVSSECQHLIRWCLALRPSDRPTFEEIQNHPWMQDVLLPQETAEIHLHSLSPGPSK
# Chain of Serine/threonine-protein kinase PAK 1 (Homo sapiens) (Q13153 whole entry): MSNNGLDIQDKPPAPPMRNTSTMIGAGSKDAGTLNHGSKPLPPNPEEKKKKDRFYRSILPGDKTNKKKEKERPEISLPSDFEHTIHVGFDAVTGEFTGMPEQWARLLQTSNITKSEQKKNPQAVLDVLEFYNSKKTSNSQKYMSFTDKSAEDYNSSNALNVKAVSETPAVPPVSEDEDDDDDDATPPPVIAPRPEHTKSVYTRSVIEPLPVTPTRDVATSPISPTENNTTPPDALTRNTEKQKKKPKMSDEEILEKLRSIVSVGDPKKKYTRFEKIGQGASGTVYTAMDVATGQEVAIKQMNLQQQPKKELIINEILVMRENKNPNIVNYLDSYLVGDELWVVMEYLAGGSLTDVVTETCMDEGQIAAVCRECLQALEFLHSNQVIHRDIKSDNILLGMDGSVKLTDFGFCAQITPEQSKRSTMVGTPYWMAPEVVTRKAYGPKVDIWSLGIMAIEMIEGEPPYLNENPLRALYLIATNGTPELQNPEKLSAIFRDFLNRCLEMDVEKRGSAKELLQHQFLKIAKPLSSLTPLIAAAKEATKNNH
# Chain of Tyrosine-protein kinase Fyn (Homo sapiens) (P06241 2-537 limits assumed): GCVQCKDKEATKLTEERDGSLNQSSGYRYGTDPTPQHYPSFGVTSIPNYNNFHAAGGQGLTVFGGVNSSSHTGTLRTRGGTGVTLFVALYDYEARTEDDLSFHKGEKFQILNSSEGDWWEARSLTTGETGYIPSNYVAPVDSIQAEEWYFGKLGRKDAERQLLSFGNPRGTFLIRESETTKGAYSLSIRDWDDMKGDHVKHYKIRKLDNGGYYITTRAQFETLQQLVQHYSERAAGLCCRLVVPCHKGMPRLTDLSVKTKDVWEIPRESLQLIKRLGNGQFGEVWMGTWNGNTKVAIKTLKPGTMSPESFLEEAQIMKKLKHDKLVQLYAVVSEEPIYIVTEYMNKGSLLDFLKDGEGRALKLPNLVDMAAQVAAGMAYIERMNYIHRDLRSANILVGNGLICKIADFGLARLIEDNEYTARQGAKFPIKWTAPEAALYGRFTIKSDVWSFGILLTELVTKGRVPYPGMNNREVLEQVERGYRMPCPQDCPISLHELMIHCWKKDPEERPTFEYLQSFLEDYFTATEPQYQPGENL
# Chain of Calcium/calmodulin-dependent protein kinase type 1D (Homo sapiens) (Q8IU85 whole entry, looked up): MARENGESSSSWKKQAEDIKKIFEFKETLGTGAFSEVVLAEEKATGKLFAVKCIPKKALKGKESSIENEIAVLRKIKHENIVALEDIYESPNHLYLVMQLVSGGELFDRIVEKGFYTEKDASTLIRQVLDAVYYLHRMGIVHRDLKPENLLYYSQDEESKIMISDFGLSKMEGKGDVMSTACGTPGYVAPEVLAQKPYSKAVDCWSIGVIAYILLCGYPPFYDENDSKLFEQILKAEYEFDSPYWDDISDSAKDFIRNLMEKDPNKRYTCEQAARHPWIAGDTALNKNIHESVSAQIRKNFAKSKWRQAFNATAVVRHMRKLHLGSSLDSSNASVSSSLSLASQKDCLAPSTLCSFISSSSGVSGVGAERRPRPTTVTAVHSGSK
# Chain of Casein kinase II subunit alpha (Homo sapiens) (P68400 whole entry, looked up): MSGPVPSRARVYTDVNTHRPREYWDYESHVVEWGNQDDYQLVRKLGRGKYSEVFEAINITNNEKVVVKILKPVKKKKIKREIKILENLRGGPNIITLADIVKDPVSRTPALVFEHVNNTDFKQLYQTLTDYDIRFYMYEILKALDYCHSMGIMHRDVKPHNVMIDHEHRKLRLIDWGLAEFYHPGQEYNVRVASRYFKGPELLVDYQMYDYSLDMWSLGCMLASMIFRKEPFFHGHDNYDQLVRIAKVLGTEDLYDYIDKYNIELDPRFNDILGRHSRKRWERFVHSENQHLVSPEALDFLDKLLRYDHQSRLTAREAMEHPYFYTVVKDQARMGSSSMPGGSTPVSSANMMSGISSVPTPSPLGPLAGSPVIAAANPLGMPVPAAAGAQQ
SMILES,IC50 [1],inhibition [2],inhibition [3],inhibition [4],inhibition [5],inhibition [6],inhibition [7],inhibition [8],inhibition [9],inhibition [10],inhibition [11],inhibition [12],inhibition [13],inhibition [14],inhibition [15],Activity (SH-SY5Y)
c1ccc(CSc2ncnc3[nH]cnc23)cc1,200 nM,inactive,inactive,inactive,inactive,inactive,inactive,inactive,inactive,inactive,inactive,inactive,inactive,inactive,inactive,inactive
Brc1ccccc1CSc1ncnc2[nH]cnc12,270 nM,inactive,inactive,inactive,inactive,inactive,inactive,inactive,inactive,inactive,inactive,inactive,inactive,inactive,inactive,inactive
Clc1cccc(CSc2ncnc3[nH]cnc23)c1,140 nM,inactive,inactive,inactive,inactive,inactive,inactive,inactive,inactive,inactive,inactive,inactive,inactive,inactive,inactive,inactive
